System: BRM-dependent transcription (BRG1 mutant lung cancer cell line A549)
Assay: BRM-dependent transcription, MMTV luciferase reporter in BRG1 mutant A549 cells
Type: cell-based
Conditions: Table 11; for IC50: A549-MMTV luciferase reporter, dexamethasone induced, 6 hours; for Ratio (MDA-MMTV IC50 (μM) divided by A549-MMTV IC50 (μM)): MMTV luciferase reporter cell lines, selectivity BRG1/BRM
Protocol: The potential inhibitory effects of compounds on BRG1 and BRM dependent transcription was study by testing the activity of against the BRG1 mutant lung cancer cell line A549 and a MDA cell line with BRM removed by CRISPR. Both cell lines were genetically engineered with a BRG1 or BRM-dependent mouse mammary tumor virus luciferase reporter. Luciferase transcription was induced by dexamethasone in the presence of compound at different concentrations and luminescence was measured using a plate reader 6 hours after stimulation.

SMILES | IC50 (Homo sapiens, A549, 6 h) | Ratio (MDA-MMTV IC50 (μM) divided by A549-MMTV IC50 (μM)) | IC50
[2H]C([2H])([2H])C([2H])([2H])Oc1ccc(-c2ccc3cnc(CNC(=O)c4cc(F)c5c(c4)S(=O)(=O)[C@@H](F)COC5)cc3n2)nc1C1CC1(F)F (stereo partly drawn) [Compound 463] | 6.2 nM | 35.00 | 
COc1nc(OC(F)F)ccc1-c1ccc2cnc(CNC(=O)c3cc(F)c4c(c3)S(=O)(=O)[C@@H](F)CCO4)cc2n1 [Compound 388] | 7.3 nM | 26.43 | 
CCOc1nc(C(F)F)ncc1-c1ccc2cnc(CNC(=O)c3cc(Cl)c4c(c3)S(=O)(=O)[C@@H](F)COC4)cc2n1 [Compound 505] | 10.6 nM | 21.63 | 
COc1ccc(-c2ccc3cnc(CNC(=O)c4cc(Cl)c5c(c4)S(=O)(=O)[C@@H](F)CCO5)cc3n2)nc1C1CC1(F)F (stereo partly drawn) [Compound 369] | 17.1 nM | 26.85 | 
[2H]C([2H])([2H])C([2H])([2H])Oc1ccc(-c2ccc3cnc(CNC(=O)c4cc(C(F)F)c5c(c4)S(=O)(=O)[C@@H](F)COC5)cc3n2)nc1C1CC1(F)F (stereo partly drawn) [Compound 440] | 16.1 nM | 53.01 | 
COc1ccc(-c2ccc3cnc(CNC(=O)c4cc(Br)c5c(c4)S(=O)(=O)[C@@H](F)COC5)cc3n2)nc1C1CC1 [Compound 487] | 13.4 nM | 53.94 | 
COCCOc1cnc2c(c1)C(F)(F)CCN2c1ccc2cnc(CNC(=O)c3cc(Br)c4c(c3)S(=O)(=O)[C@@H](F)CCO4)cc2n1 [Compound 462] | 8.1 nM | 25.94 | 
O=C(NCc1cc2nc(-c3ccc([C@@H](F)CF)nc3OC(F)F)ccc2cn1)c1cc(F)c2c(c1)S(=O)(=O)[C@@H](F)CCO2 [Compound 391] | 2.1 nM | 24.21 | 
O=C(NCc1cc2nc(-c3ccc(C(F)F)c(C4CC4)n3)ccc2cn1)c1cc(Br)c2c(c1)S(=O)(=O)[C@@H](F)COC2 [Compound 442] | 8.5 nM | 25.83 | 
O=C(NCc1cc2nc(N3CCOc4ccc(C(F)F)nc43)ccc2cn1)c1cc(Br)c2c(c1)S(=O)(=O)[C@@H](F)CCO2 [Compound 435] | 23 nM | 25.82 | 
O=C(NCc1cc2nc(-c3ccc(OC(F)F)c(C4CC4(F)F)n3)ccc2cn1)c1cc(Br)c2c(c1)S(=O)(=O)[C@@H](F)CCO2 (stereo partly drawn) [Compound 448] | 19 nM | 37.60 | 
CCOc1nc([C@H](C)F)ccc1-c1ccc2cnc(CNC(=O)c3cc(F)c4c(c3)S(=O)(=O)[C@@H](F)COC4)cc2n1 [Compound 395] | 4.7 nM | 21.65 | 
COc1ccc(-c2ccc3cnc(CNC(=O)c4cc(C(F)F)c5c(c4)S(=O)(=O)[C@@H](F)COC5)cc3n2)nc1C1CC1(F)F (stereo partly drawn) [Compound 434] | 8.7 nM | 41.19 | 
[2H]C([2H])([2H])Oc1ccc(-c2ccc3cnc(CNC(=O)c4cc(C(F)F)c5c(c4)S(=O)(=O)[C@@H](F)COC5)cc3n2)nc1[C@H]1CC1(F)F [Compound 459] | 15.3 nM | 27.87 | 
COc1nc(C(C)(F)F)ccc1-c1ccc2cnc(CNC(=O)c3cc(C(F)F)c4c(c3)S(=O)(=O)[C@@H](F)COC4)cc2n1 [Compound 467] | 17 nM | 24.85 | 
O=C(NCc1cc2nc(-c3ccc(OC(F)F)c(C4CC4)n3)ccc2cn1)c1cc(Cl)c2c(c1)S(=O)(=O)[C@@H](F)CCO2 [Compound 357] |  | 22.68 | 12.4 nM
C[C@@H]1CCN1c1cnc2c(-c3ccc4cnc(CNC(=O)c5cc(F)c6c(c5)S(=O)(=O)[C@@H](F)COC6)cc4n3)cccc2c1 [Compound 496] |  | 21.18 | 1.6 nM
COc1nc(C(F)F)ccc1-c1ccc2cnc(CNC(=O)c3cc(Br)c4c(c3)S(=O)(=O)[C@@H](F)COC4)cc2n1 [Compound 410] | 14.3 nM | 27.39 | 
CCOc1nc(C(F)F)ncc1-c1ccc2cnc(CNC(=O)c3cc(C(F)F)c4c(c3)S(=O)(=O)[C@@H](F)COC4)cc2n1 [Compound 510] | 14.6 nM | 22.06 | 
CCOc1nc([C@@H](F)CF)ccc1-c1ccc2cnc(CNC(=O)c3cc(C(F)F)c4c(c3)S(=O)(=O)[C@@H](F)COC4)cc2n1 [Compound 457] |  | 33.28 | 7.2 nM
O=C(NCc1cc2nc(-c3cccc(C4CC4)n3)ccc2cn1)c1ccc2c(c1)S(=O)(=O)[C@@H](F)CCOC2 [Compound 364] | 1.9 nM | 22.21 | 

SMILES | IC50 (Homo sapiens, A549, 6 h) | Ratio (MDA-MMTV IC50 (μM) divided by A549-MMTV IC50 (μM)) | IC50
COCc1ccc(-c2ccc3cnc(CNC(=O)c4cc(F)c5c(c4)S(=O)(=O)[C@@H](F)CCO5)cc3n2)nc1C1CC1 [Compound 354] | 17.2 nM | 26.53 | 
COc1nc(OC(F)F)ccc1-c1ccc2cnc(CNC(=O)c3cc(Cl)c4c(c3)S(=O)(=O)[C@@H](F)COC4)cc2n1 [Compound 409] | 14.1 nM | 25.36 | 
[2H]C([2H])([2H])C([2H])([2H])Oc1nc([C@@H](F)CF)ccc1-c1ccc2cnc(CNC(=O)c3cc(Br)c4c(c3)S(=O)(=O)[C@@H](F)COC4)cc2n1 [Compound 489] | 11.8 nM | 35.95 | 
[2H]C([2H])([2H])Oc1ccc(-c2ccc3cnc(CNC(=O)c4cc(Cl)c5c(c4)S(=O)(=O)[C@@H](F)COC5)cc3n2)nc1C1CC1 [Compound 523] | 16.2 nM | 26.20 | 
[2H]C1([2H])Oc2c(Cl)cc(C(=O)NCc3cc4nc(-c5ccc(OC(F)F)c(C6CC6)n5)ccc4cn3)cc2S(=O)(=O)[C@@H](F)C1([2H])[2H] [Compound 419] | 17.4 nM | 28.69 | 
O=C(NCc1cc2nc(-c3ccc(OC(F)F)c(C4CC4)n3)ccc2cn1)c1cc(Cl)c2c(c1)S(=O)(=O)[C@@H](F)CCO2 [Compound 355] | 13.1 nM | 23.10 | 
[2H]C([2H])([2H])Oc1ccc(-c2ccc3cnc(CNC(=O)c4cc(Cl)c5c(c4)S(=O)(=O)[C@@H](F)COC5)cc3n2)nc1C1CC1(F)F (stereo partly drawn) [Compound 507] |  | 30.86 | 13.5 nM
Cc1cc(C(=O)NCc2cc3nc(-c4cccc(C5CC5)n4)ccc3cn2)cc2c1OCC[C@H](F)S2(=O)=O [Compound 339] | 19.4 nM | 40.09 | 
COc1nc([C@](C)(F)C(F)F)ccc1-c1ccc2cnc(CNC(=O)c3cc(F)c4c(c3)S(=O)(=O)[C@@H](F)CCO4)cc2n1 [Compound 363] | 16.9 nM | 22.45 | 
[2H]C([2H])([2H])C([2H])([2H])Oc1nc(C(F)F)ccc1-c1ccc2cnc(CNC(=O)c3cc(Br)c4c(c3)S(=O)(=O)[C@@H](F)COC4)cc2n1 [Compound 486] | 13.3 nM | 33.87 | 
O=C(NCc1cc2nc(N3CCCc4cc(OC(F)(F)F)cnc43)ccc2cn1)c1cc(F)c2c(c1)S(=O)(=O)[C@@H](F)CCO2 [Compound 352] | 16.3 nM | 23.28 | 
CCOc1nc(C(F)F)ccc1-c1ccc2cnc(CNC(=O)c3cc(Cl)c4c(c3)S(=O)(=O)[C@@H](F)COC4)cc2n1 [Compound 431] | 9.5 nM | 31.77 | 
COCCOc1nn(-c2ccc3cnc(CNC(=O)c4cc(F)c5c(c4)S(=O)(=O)[C@@H](F)COC5)cc3n2)cc1F [Compound 508] | 11.5 nM | 21.72 | 
O=C(NCc1cc2nc(N3CCC(F)(F)c4cc(C5CC5)cnc43)ccc2cn1)c1cc(F)c2c(c1)S(=O)(=O)[C@@H](F)CCO2 [Compound 425] | 2.3 nM | 24.38 | 
O=C(NCc1cc2nc(-c3ccc([C@@H](F)C(F)F)c(C4CC4)n3)ccc2cn1)c1cc(Cl)c2c(c1)S(=O)(=O)[C@@H](F)COC2 [Compound 482] | 12 nM | 25.21 | 
COc1nc([C@@H](C)C(F)F)ccc1-c1ccc2cnc(CNC(=O)c3cc(F)c4c(c3)S(=O)(=O)[C@@H](F)CCO4)cc2n1 [Compound 366] | 24.1 nM | 29.97 | 
[2H]C([2H])([2H])Oc1nc([C@H](F)CF)ccc1-c1ccc2cnc(CNC(=O)c3cc(F)c4c(c3)S(=O)(=O)[C@@H](F)CCO4)cc2n1 [Compound 394] | 9.2 nM | 24.90 | 
[2H]C([2H])([2H])C([2H])([2H])Oc1nc([C@H](F)CF)ccc1-c1ccc2cnc(CNC(=O)c3cc(C(F)F)c4c(c3)S(=O)(=O)[C@@H](F)COC4)cc2n1 [Compound 478] | 10.4 nM | 33.55 | 
COc1cccc(-c2ccc3cnc(CNC(=O)c4cc(F)c5c(c4)S(=O)(=O)[C@@H](F)CCO5)cc3n2)n1 [Compound 333] | 15.4 nM | 31.11 | 
C[C@@H](CF)c1ccc2c(n1)N(c1ccc3cnc(CNC(=O)c4cc(F)c5c(c4)S(=O)(=O)[C@@H](F)CCO5)cc3n1)CCO2 [Compound 351] | 20 nM | 25.07 | 
COc1nc(C(F)(F)F)ccc1-c1ccc2cnc(CNC(=O)c3cc(Cl)c4c(c3)S(=O)(=O)[C@@H](F)CCO4)cc2n1 [Compound 348] | 13.9 nM | 30.79 | 

Source: patent US12139487B2, “Compounds and uses thereof” (Foghorn Therapeutics Inc., priority 2022, dated 2024)
